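Values below derive from 48-hour exposures of cells grown in 96-well plates, with endpoints linearly interpolated between the two concentrations bracketing the appropriate inhibition level. TGI: total growth inhibition.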

Test systems include PC-3 prostate; SK-MEL-5 melanoma; BT-549 breast; TK-10 renal; U251 CNS; A549 NSCLC; OVCAR-8 ovarian; UO-31 renal; T-47D breast; HOP-92 NSCLC.
Common to all, as to test: NCI anticancer screen, dose series, 48 h

For the compound `COC[C@H](Cc1ccccc1)N=Cc1ccccc1`, the TGI in the assay with PC-3 prostate, in the assay on SK-MEL-5 melanoma, with BT-549 breast, in the assay with TK-10 renal, in the assay with U251 CNS and in the assay on A549 NSCLC was more than 100 µM throughout. Besides, the TGI in the assay on OVCAR-8 ovarian, in the assay with UO-31 renal and in the assay on T-47D breast was more than 100 µM in each case.
As to `Cc1cccc2ns[s+]c12`, the TGI with SK-MEL-5 melanoma, in the assay with TK-10 renal, in the assay with HOP-92 NSCLC, in the assay with U251 CNS, in the assay on A549 NSCLC and in the assay with OVCAR-8 ovarian was more than 100 µM each time. This compound showed a TGI with UO-31 renal of more than 100 µM.
Turning to `CN1C(=N\S(=O)(=O)c2ccc(Cl)cc2)/C(=N/N=P(c2ccccc2)(c2ccccc2)c2ccccc2)c2ccccc21`, the TGI in the assay with SK-MEL-5 melanoma, in the assay with TK-10 renal, in the assay on U251 CNS, with A549 NSCLC, in the assay on OVCAR-8 ovarian and in the assay with UO-31 renal was more than 100 µM in each case.
Regarding `CCC(c1ccc(N(C)C)cc1)C1NC(=S)NC1=O` (stereo not drawn), the TGI with SK-MEL-5 melanoma, with TK-10 renal, in the assay with HOP-92 NSCLC, with U251 CNS, in the assay with A549 NSCLC and with OVCAR-8 ovarian was more than 100 µM in each case. In addition, the TGI in the assay with UO-31 renal and with T-47D breast was more than 100 µM each time.
As for `O=C(Cl)c1cc([N+](=O)[O-])cc([N+](=O)[O-])c1`, the TGI in the assay with SK-MEL-5 melanoma, with TK-10 renal, in the assay with HOP-92 NSCLC, with U251 CNS, in the assay on A549 NSCLC and with UO-31 renal was more than 100 µM throughout.
Regarding `CC(C)(C)OC(=O)NCCNC(=O)OCc1ccccc1`, the TGI with PC-3 prostate, with SK-MEL-5 melanoma, in the assay with BT-549 breast, with TK-10 renal, in the assay on HOP-92 NSCLC and in the assay with U251 CNS was more than 100 µM in each case. The TGI in the assay with A549 NSCLC, with OVCAR-8 ovarian and with UO-31 renal was more than 100 µM throughout.
As for `Cc1ccc(CCNC(=S)SCC(NC(=O)CCC(N)C(=O)O)C(=O)NCC(=O)O)cc1` (stereo not drawn), the TGI with SK-MEL-5 melanoma was 3.78 µM; in the assay with TK-10 renal it was 9.95 µM; in the assay on HOP-92 NSCLC, 2.8 µM; in the assay with U251 CNS, 4.06 µM; in the assay on A549 NSCLC, 13.4 µM; with OVCAR-8 ovarian, 4.65 µM. The TGI in the assay on UO-31 renal came out at 2.33 µM.
For the compound `CCCCCCCCCCCCCCCCCc1nc(C#N)c(N)o1`, the TGI in the assay with PC-3 prostate, with SK-MEL-5 melanoma, in the assay on TK-10 renal, in the assay with HOP-92 NSCLC, with U251 CNS and in the assay on A549 NSCLC was more than 100 µM throughout. The compound further had a TGI in the assay on OVCAR-8 ovarian of 51.8 µM.
As to `COc1nc(NC2OCC(OC(C)=O)C(OC(C)=O)C2OC(C)=O)c(N=C(C)C(C)=O)c(=O)n1C` (stereo not drawn), the TGI in the assay on SK-MEL-5 melanoma, with TK-10 renal, with HOP-92 NSCLC, in the assay with U251 CNS, in the assay on A549 NSCLC and in the assay with OVCAR-8 ovarian was more than 100 µM in each case. Besides, in the assay on UO-31 renal, the TGI was more than 100 µM.
Turning to `O=c1[nH]c2cccccc-2c1-c1nc2ccccc2[nH]1`, the TGI was 47.6 µM in the assay with SK-MEL-5 melanoma; more than 100 µM in the assay with TK-10 renal; 93.6 µM with HOP-92 NSCLC; 68 µM with U251 CNS; more than 100 µM with A549 NSCLC; 96.7 µM in the assay with OVCAR-8 ovarian. The compound also returned a TGI with UO-31 renal of 86.6 µM.
As for `CCC1(CC)C(=O)N(C(=O)c2ccc(Cl)cc2)N(C(=O)c2ccccc2Cl)C1=O`, the TGI with PC-3 prostate, in the assay with SK-MEL-5 melanoma, in the assay with BT-549 breast, in the assay with TK-10 renal, in the assay with U251 CNS and with A549 NSCLC was more than 100 µM each time. The TGI in the assay with OVCAR-8 ovarian, in the assay with UO-31 renal and in the assay on T-47D breast was more than 100 µM each time.
On to `CC1(C)CC(=O)C2=C(C1)OC1=C(CC(C)(C)CC1=O)C2c1ccccc1Cl` (stereo not drawn), for which the TGI with PC-3 prostate, in the assay with SK-MEL-5 melanoma, in the assay with HOP-92 NSCLC, in the assay on U251 CNS, in the assay with A549 NSCLC and with OVCAR-8 ovarian was more than 100 µM each time. Further, the TGI in the assay on UO-31 renal is 3.67 µM; with T-47D breast, more than 100 µM.
Consider `COc1ccccc1C1C(Cl)C(=O)N1NC(=O)Cc1ccccc1` (stereo not drawn), for which the TGI with SK-MEL-5 melanoma, in the assay with TK-10 renal, with U251 CNS, in the assay with A549 NSCLC, in the assay on OVCAR-8 ovarian and with UO-31 renal was more than 100 µM throughout.
With `CCC1OC(=O)C(C)C(OC2CC(C)(O)C(O)C(C)O2)C(C)C(O)C(C)(O)CC(C)C(=O)C(C)C(O)C1C` (stereo not drawn), the TGI in the assay with SK-MEL-5 melanoma, in the assay on HOP-92 NSCLC, with U251 CNS, in the assay on A549 NSCLC, with OVCAR-8 ovarian and with UO-31 renal was more than 300 µM throughout.
`CSc1nc(Cl)c2c(n1)Sc1ncnn1C2O` (stereo not drawn): the TGI with PC-3 prostate amounted to 27.7 µM; with BT-549 breast, 28.8 µM; with TK-10 renal it was 31.2 µM; in the assay with HOP-92 NSCLC, 30.3 µM; in the assay on U251 CNS, 33.9 µM; in the assay on A549 NSCLC it was 36.9 µM. In addition, the TGI was 15.7 µM in the assay with OVCAR-8 ovarian and 5.24 µM in the assay with UO-31 renal.
Regarding `OB1OCc2ccccc21`, the TGI was 64.4 µM in the assay on PC-3 prostate; more than 100 µM in the assay with SK-MEL-5 melanoma; more than 100 µM in the assay on BT-549 breast; more than 100 µM in the assay with TK-10 renal; more than 100 µM in the assay with U251 CNS; more than 100 µM in the assay on A549 NSCLC. Also, the TGI in the assay with OVCAR-8 ovarian, in the assay with UO-31 renal and with T-47D breast was more than 100 µM in each case.
With `COC(=O)c1ccc2[nH]c3c(c2c1)CC(=O)Nc1ccccc1-3`, the TGI is more than 100 µM in the assay on PC-3 prostate; more than 100 µM in the assay with SK-MEL-5 melanoma; more than 100 µM in the assay on BT-549 breast; more than 100 µM in the assay on TK-10 renal; 94.6 µM in the assay on U251 CNS; more than 100 µM in the assay on A549 NSCLC. Besides, the TGI with OVCAR-8 ovarian is more than 100 µM; in the assay with UO-31 renal, 0.211 µM; in the assay on T-47D breast it was more than 100 µM.

These data come from PubChem BioAssay (NCI).
